Test system: tomato spotted wilt virus (TSWV)
Assay: Replicated tomato drench trial (Example 6)
Type: in vivo, tomato (Lycopersicon esculentum MILL.)
Conditions: prothioconazole 0.0084 g ai/plant, imidacloprid 0.01 g/plant; for Percent control of incidence of TSWV in tomatoes: Abbott's formula; for Percent incidence of TSWV in tomatoes: drench
Experimental: Cultivation—A replicated trial on tomato (Lycopersicon esculentum MILL.) was initiated in Molino, Fla. to determine if drenches of prothioconazole alone and in combination with the insecticide imidacloprid would suppress TSWV in tomato. Tomato plants, cultivar FL 47 were transplanted on April 11 into 4 rows, each 9.1 meters long, 60 plants per plot, with three replications. Treatments were applied, into a shallow bowl dug at the base of each plant, as a drench in 40 ml water per plant (6 days after transplanting) on April 17. Treatments— • Untreated—no in-furrow treatment • Imidacloprid@0.01 g imidacloprid/plant. • Prothioconazole—prothioconazole@0.0084 g active ingredient/plant. • Prothioconazole+Imidacloprid—prothioconazole@0.0084 g active ingredient/plant+imidacloprid@0.01 g imidacloprid/plant. TSWV rating—University researchers recommend buffers in TSWV testing. Therefore, the center two rows (30 plants) per plot were used for virus ratings with the outer two rows acting as buffers. TSWV incidence determinations were made based on the presence or absence of TSWV symptoms (chlorosis and stunting) per plant. The four treatments were rated at 21, 29, and 39 days after treatment. Synergy formula—The Colby formula for proof of synergy was used in Example 6. The percent incidence values were converted to percent control with Abbotts's formula (1-treated/untreated)*100. Percent control values for solo treatment X and solo treatment Y, were entered into the Colby formula. When the value determined from the plots with both treatment X and Y applied together is greater than the value determined by the Colby formula then synergy is indicated. The formula is: X+Y−(X*Y/100).

In the case of `OC(Cc1ccccc1Cl)(Cn1nc[nH]c1=S)C1(Cl)CC1` (stereo not drawn) [Prothioconazole, prothioconazole], the “Percent control of incidence of TSWV in tomatoes” value (“Percent control” for short) (21 days after treatment) is reported as 54.79%, the “Percent incidence of TSWV in tomatoes” value (21 days after treatment) is reported as 13.2% and the “Percent control” value (29 days after treatment) is reported as 28.00%. For the same compound, the “Percent incidence of TSWV in tomatoes” value (29 days after treatment) was 48.6%, the “Percent control” value (39 days after treatment) was 21.18% and the “Percent incidence of TSWV in tomatoes” value (39 days after treatment) was 66.6%.

Source: patent publication US20080039431A1, “Method of improving plant growth by reducing viral infections” (priority 2006, published 2008)
